According to patent publication EP3002287B1, “Thiochromeno[2,3-c]quinolin-12-one derivatives and their use as topoisomerase inhibitors” (National Defense Medical Center, priority 2014, dated 2016):

How the values were obtained:
Assay in all cases: NCI in vitro 60-cell drug screen (SRB assay)
Format in all cases: cell-based
SF-268 = SF-268 (CNS cancer); 10^-5 molar concentration; 48 hours
UACC-257 = UACC-257 (Melanoma); 10^-5 molar concentration; 48 hours
PC-3 = PC-3 (Prostate cancer); 10^-5 molar concentration; 48 hours
MOLT-4 = MOLT-4 (Leukemia); 10^-5 molar concentration; 48 hours
HCC-2998 = HCC-2998 (Colon cancer); 10^-5 molar concentration; 48 hours
MCF7 = MCF7 (Breast cancer); 10^-5 molar concentration; 48 hours
U251 = U251 (CNS cancer); 10^-5 molar concentration; 48 hours
CCRF-CEM = CCRF-CEM (Leukemia); 10^-5 molar concentration; 48 hours
RXF 393 = RXF 393 (Renal cancer); 10^-5 molar concentration; 48 hours
A498 = A498 (Renal cancer); 10^-5 molar concentration; 48 hours
NCI/ADR-RES = NCI/ADR-RES (Ovarian cancer); 10^-5 molar concentration; 48 hours
SK-OV-3 = SK-OV-3 (Ovarian cancer); 10^-5 molar concentration; 48 hours
OVCAR-3 = OVCAR-3 (Ovarian cancer); 10^-5 molar concentration; 48 hours
NCI-H522 = NCI-H522 (Non-small cell lung cancer); 10^-5 molar concentration; 48 hours
MDA-MB-435 = MDA-MB-435 (Melanoma); 10^-5 molar concentration; 48 hours
K-562 = K-562 (Leukemia); 10^-5 molar concentration; 48 hours
MDA-MB-231/ATCC = MDA-MB-231/ATCC (Breast cancer); 10^-5 molar concentration; 48 hours
SK-MEL-28 = SK-MEL-28 (Melanoma); 10^-5 molar concentration; 48 hours
HCT-116 = HCT-116 (Colon cancer); 10^-5 molar concentration; 48 hours
NCI-H23 = NCI-H23 (Non-small cell lung cancer); 10^-5 molar concentration; 48 hours
HOP-92 = HOP-92 (Non-small cell lung cancer); 10^-5 molar concentration; 48 hours
NCI-H460 = NCI-H460 (Non-small cell lung cancer); 10^-5 molar concentration; 48 hours
HL-60(TB) = HL-60(TB) (Leukemia); 10^-5 molar concentration; 48 hours
HT29 = HT29 (Colon cancer); 10^-5 molar concentration; 48 hours
LOX IMVI = LOX IMVI (Melanoma); 10^-5 molar concentration; 48 hours
HCT-15 = HCT-15 (Colon cancer); 10^-5 molar concentration; 48 hours
MDA-MB-486 = MDA-MB-486 (Breast cancer); 10^-5 molar concentration; 48 hours
UO-31 = UO-31 (Renal cancer); 10^-5 molar concentration; 48 hours
HS 578T = HS 578T (Breast cancer); 10^-5 molar concentration; 48 hours
COLO 205 = COLO 205 (Colon cancer); 10^-5 molar concentration; 48 hours
TK-10 = TK-10 (Renal cancer); 10^-5 molar concentration; 48 hours
T-47D = T-47D (Breast cancer); 10^-5 molar concentration; 48 hours
786-0 = 786-0 (Renal cancer); 10^-5 molar concentration; 48 hours
SNB-75 = SNB-75 (CNS cancer); 10^-5 molar concentration; 48 hours
UACC-62 = UACC-62 (Melanoma); 10^-5 molar concentration; 48 hours
CAKI-1 = CAKI-1 (Renal cancer); 10^-5 molar concentration; 48 hours
OVCAR-4 = OVCAR-4 (Ovarian cancer); 10^-5 molar concentration; 48 hours

COc1nc2ccccc2c2c(=O)c3cc(Cl)ccc3sc12 [Compound 5, 10-Chloro-6-methoxy-12H-thiochromeno[2,3-c]quinolin-12-one]
Growth percent (SF-268): 94.12% | Growth percent (UACC-257): 108.09% | Growth percent (PC-3): 92.46% | Growth percent (MOLT-4): 80.62% | Growth percent (HCC-2998): 104.67% | Growth percent (MCF7): 65.39% | Growth percent (U251): 99.18% | Growth percent (CCRF-CEM): 106.56% | Growth percent (RXF 393): 109.68% | Growth percent (A498): 96.29% | Growth percent (NCI/ADR-RES): 96.10% | Growth percent (SK-OV-3): 58.94% | Growth percent (OVCAR-3): 96.60% | Growth percent (NCI-H522): 92.71% | Growth percent (MDA-MB-435): 103.83% | Growth percent (K-562): 95.83% | Growth percent (MDA-MB-231/ATCC): 78.12% | Growth percent (SK-MEL-28): 112.31% | Growth percent (HCT-116): 89.48% | Growth percent (NCI-H23): 80.14% | Growth percent (HOP-92): 80.11% | Growth percent (NCI-H460): 101.23% | Growth percent (HL-60(TB)): 89.47% | Growth percent (HT29): 102.69% | Growth percent (LOX IMVI): 91.21% | Growth percent (HCT-15): 107.99% | Growth percent (MDA-MB-486): 103.54% | Growth percent (UO-31): 74.69% | Growth percent (HS 578T): 66.51% | Growth percent (COLO 205): 97.94% | Growth percent (TK-10): 113.30% | Growth percent (T-47D): 68.46% | Growth percent (786-0): 99.15% | Growth percent (SNB-75): 52.28% | Growth percent (UACC-62): 96.15%

CN(C)c1nc2ccccc2c2c(=O)c3cc(Cl)ccc3sc12 [Compound 6, 10-Chloro-6-dimethylamino-12H-thiochromeno[2,3-c]quinolin-12-one]
Growth percent (SF-268): 77.86% | Growth percent (UACC-257): 109.22% | Growth percent (PC-3): 81.25% | Growth percent (MOLT-4): 97.52% | Growth percent (HCC-2998): 97.20% | Growth percent (MCF7): 22.19% | Growth percent (U251): 93.55% | Growth percent (CCRF-CEM): 99.42% | Growth percent (RXF 393): 83.17% | Growth percent (A498): 97.06% | Growth percent (NCI/ADR-RES): 87.86% | Growth percent (SK-OV-3): 41.57% | Growth percent (OVCAR-3): 79.65% | Growth percent (NCI-H522): 70.42% | Growth percent (MDA-MB-435): 107.18% | Growth percent (K-562): 99.71% | Growth percent (MDA-MB-231/ATCC): 71.03% | Growth percent (SK-MEL-28): 96.60% | Growth percent (HCT-116): 74.26% | Growth percent (NCI-H23): 77.00% | Growth percent (HOP-92): 58.65% | Growth percent (NCI-H460): 88.86% | Growth percent (HL-60(TB)): 107.16% | Growth percent (HT29): 87.73% | Growth percent (LOX IMVI): 86.53% | Growth percent (HCT-15): 89.27% | Growth percent (MDA-MB-486): 29.91% | Growth percent (UO-31): 73.81% | Growth percent (HS 578T): 60.38% | Growth percent (COLO 205): 89.67% | Growth percent (TK-10): 64.75% | Growth percent (T-47D): 37.66% | Growth percent (786-0): 87.00% | Growth percent (SNB-75): 15.29% | Growth percent (UACC-62): 87.80%

O=c1c2cc(Cl)ccc2sc2c(O)nc3ccccc3c12 [Compound 4, 10-Chloro-6-hydroxy-12H-thiochromeno[2,3-c]quinolin-12-one]
Growth percent (SF-268): 95.26% | Growth percent (UACC-257): 108.36% | Growth percent (PC-3): 91.90% | Growth percent (MOLT-4): 100.41% | Growth percent (HCC-2998): 101.48% | Growth percent (MCF7): 69.90% | Growth percent (U251): 101.85% | Growth percent (CCRF-CEM): 107.78% | Growth percent (RXF 393): 116.94% | Growth percent (A498): 107.74% | Growth percent (NCI/ADR-RES): 96.84% | Growth percent (SK-OV-3): 94.40% | Growth percent (OVCAR-3): 106.37% | Growth percent (NCI-H522): 86.60% | Growth percent (MDA-MB-435): 103.18% | Growth percent (K-562): 107.08% | Growth percent (MDA-MB-231/ATCC): 81.80% | Growth percent (SK-MEL-28): 116.59% | Growth percent (HCT-116): 86.20% | Growth percent (NCI-H23): 88.96% | Growth percent (HOP-92): 93.13% | Growth percent (NCI-H460): 96.92% | Growth percent (HL-60(TB)): 109.82% | Growth percent (HT29): 96.78% | Growth percent (LOX IMVI): 92.07% | Growth percent (HCT-15): 98.11% | Growth percent (MDA-MB-486): 100.33% | Growth percent (UO-31): 76.44% | Growth percent (HS 578T): 113.28% | Growth percent (COLO 205): 93.69% | Growth percent (TK-10): 113.26% | Growth percent (T-47D): 77.89% | Growth percent (786-0): 99.76% | Growth percent (SNB-75): 66.63% | Growth percent (UACC-62): 105.86%

O=C(O)c1c(Sc2ccc(Cl)cc2)c(O)nc2ccccc12 [Compound 2, 3-((4-Chlorophenyl)thio)-2-hydroxyquinoline-4-carboxylic acid]
Growth percent (CAKI-1): 76.26% | Growth percent (SF-268): 113.60% | Growth percent (UACC-257): 121.83% | Growth percent (PC-3): 93.23% | Growth percent (MOLT-4): 97.25% | Growth percent (HCC-2998): 100.97% | Growth percent (MCF7): 91.95% | Growth percent (U251): 99.59% | Growth percent (CCRF-CEM): 98.31% | Growth percent (RXF 393): 113.90% | Growth percent (NCI/ADR-RES): 97.75% | Growth percent (OVCAR-3): 121.29% | Growth percent (NCI-H522): 81.64% | Growth percent (MDA-MB-435): 102.02% | Growth percent (K-562): 112.29% | Growth percent (MDA-MB-231/ATCC): 95.70% | Growth percent (SK-MEL-28): 98.95% | Growth percent (HCT-116): 103.87% | Growth percent (NCI-H23): 92.61% | Growth percent (HOP-92): 72.97% | Growth percent (NCI-H460): 104.20% | Growth percent (HL-60(TB)): 105.63% | Growth percent (HT29): 101.41% | Growth percent (LOX IMVI): 90.46% | Growth percent (HCT-15): 107.80% | Growth percent (MDA-MB-486): 104.57% | Growth percent (UO-31): 68.91% | Growth percent (HS 578T): 88.33% | Growth percent (COLO 205): 108.65% | Growth percent (TK-10): 118.09% | Growth percent (T-47D): 99.59% | Growth percent (786-0): 104.44% | Growth percent (SNB-75): 82.18% | Growth percent (UACC-62): 102.05% | Growth percent (OVCAR-4): 98.41%
